Test results published in patent publication US20120301551A1, “COMPOUNDS AND COMPOSITIONS FOR TREATING NEURONAL DEATH OR NEUROLOGICAL DYSFUNCTION” (Neurotech Pharmaceuticals Co., Ltd., priority 2005, published 2012).
Read-outs that look alike come from different tables or passages of the source.

Columns and labels:
[1] = superoxide scavenging in test tube; assay type: biochemical; conditions: read-out: superoxide scavenging effect (IC50 value)
Description: In addition, scavenging effects of superoxide and hydroxyl radical in test tube were evaluated. Hydroxyl radical scavenging activities of 0.1 uM, 1 uM and 10 uM of chemical 01 were 13.35%, 33.33% and 71.72%, respectively.

G93A mice = assay: inflammatory cytokine mRNA in lumbar segments of G93A mice (RT-PCR); assay type: in vivo, mouse; conditions: 16 week-old G93A mice, 5 mg/kg/day or 20 mg/kg/day in chow
Description: Lumbar segments of 16 week-old G93A mice fed with general chow only, and 16 week-old G93A mice fed with chow containing 5 mg/kg/day or 20 mg/kg/day of chemical 01 were extracted and their RNA were separated. The mRNA expression degrees of TNF-a and IL-16, cytokines inducing inflammation, were evaluated through RT-PCT.

beta-amyloid (Aβ42) = assay: suppression of beta-amyloid (Aβ42) production in CHO cells (ELISA); assay type: cell-based, Chinese hamster; conditions: Cricetulus griseus; CHO cells stably transfected with human wild APP695 and PS1ΔExon9; culture medium, ELISA; read-out: Aβ42 lowering effect (IC50)
Description: The suppressing effects of many drug candidates on production of beta-amyloid were evaluated in CHO cell line having the increased level of beta-amyloid. Results were shown as IC50 (uM) (Item C of Table 3 below).
In the Table 3, A, B and C mean neuron protecting effect against Fe^+2, suppressing effect on production of NO and suppressing effect on production of beta-amyloid, respectively. The term “ND” means “Not determined.”
Cells were treated with increasing concentrations of various chemicals in Chinese hamster ovary (CHO) cells stably transfected with human wild APP695 and the PS1ΔExon9, and analyzed Aβ42 levels in culture medium by colorimetric sandwich ELISA kit (BIOSOURCE, Camarillo, Calif.). In CHO cells, IC50 of Chemical—01-08 on Aβ42 lowering effect was 20-100 uM (Table 4).

[2] = system: cerebral cortical cell cultures; assay: nerve cell death by MPP+ in cerebral cortical cell cultures (LDH); assay type: cell-based; conditions: 50 uM MPP+
Description: Cerebral cortical cell cultures (DIV 13˜15) were continuously exposed to 50 uM MPP+ alone or with inclusion of 0.03-3 uM of chemical 01. After 24 hours, activity of LDH released outside cell was evaluated to quantify death of nerve cell (mean±SEM, n=4 culture well/each group).

TNF-a = assay: LPS-induced TNF-a in mesencephalic cultures; assay type: cell-based; conditions: 5 ng/ml LPS; 0-100 uM; 3 hours
Description: Mesencephalic nerve cell cultures were pre-treated with 5 ng/ml of LPS for 30 minutes to make a cull culture model of Parkinson's disease, and then 0-100 uM of chemical 01 were added. The level of NO was evaluated 24 hours after administration of chemical 01, and the level of TNF-a was evaluated 3 hours after administration of chemical 01 (mean±SEM, n=7-12 culture well/each group).

IL-6 = assay: LPS-induced IL-6 production in BV2 cells; assay type: cell-based
Description: Suppressing effects of chemical 01 in BV2 cell lines on production of IL-1β, IL-6 or TNF-α were evaluated. BV2 cells were exposed to 1 ug/ml LPS (inflammation-inducing material) with inclusion of chemical 01 at indicated doses. After 4 hours, supernatant were collected and concentrations of TNF-a were evaluated. In addition, BV2 cells were treated by the same method, and 24 hours later, supernatant were collected and concentrations of IL-1β and IL-6 were evaluated (mean±SEM, n=3). BV2 cells treated with LPS only were used as control.

[3] = single-dose toxicity test; conditions: mouse, in vivo; single dose
Description: Single-dose toxicity test of compounds showing good results in the above three efficacy tests were evaluated.

Tg2576 transgenic mice = assay: Morris water maze in Tg2576 transgenic mice; assay type: in vivo, mouse; conditions: 25 mg/kg/day for 5 months (9~14 months)
Description: 14 month-old Tg2576 transgenic mice were fed chow alone, or containing 25 mg/kg/day of chemical 01, for 5 months (9˜14 months). After administration of 5 months, the cognitive function was analyzed by Morris water maze test. Training was performed 4 times a day (4 trials/day) for 5 days. If mouse stay on the platform for over 10 seconds, it is thought to be a success. After 5 days of experiments, the latency to find the platform was recorded and analyzed for each mouse (mean±SEM, n=2).
14 month-old Tg2576 transgenic mice were fed chow alone (saline only), or containing 25 mg/kg/day of chemical—01, for 5 months (9˜14 month).
The cognitive function was analyzed by Morris water maze test. Mice ware trained to perform a hidden platform task in the Morris water maze. The latency to find the platform was recorded for each mouse.

APP/PS1 mouse = assay: plasma Aβ40/Aβ42 levels in APP/PS1 mouse; assay type: in vivo
Description: Also, treatment with 25 mg/kg/day of chemical 01 for 5 days in 11.5 month-old APP/PS1 mouse caused a significant 44% reduction in SDS-insoluble Aβ42 levels in plasma and a significant 38% reduction in SDS-insoluble Aβ40 levels in plasma compared to APP/PS1 mouse fed with general chow only.
In further, treatment with 25 mg/kg/d of chemical—01 for 7 months (from 3.5 to 10.5 months) caused a significant 42% reduction in SDS-insoluble Aβ40 levels (data not shown). Also, treatment with 25 mg/kg/d of chemical—01 for 5 days in 11.5 months caused a significant 40% reduction in SDS-insoluble Aβ40/Aβ42 levels in plasma (data not shown).

G93A transgenic mice = assay: oxidative stress in lumbar spinal motor neurons of G93A transgenic mice (nitrotyrosine, MitoTracker); assay type: in vivo, mouse; conditions: 30 mg/kg/d oral in diet from 8 weeks of age, at 10 weeks of age
Text: D: Fluorescent photomicrographs of the lumbar ventral section immunolabeled with nitrotyrosine antibody from the wild type (a), or ALS transgenic mice treated with vehicle (b), or 2-hydroxy TTBA for 2 weeks starting from at age of 8 weeks (c). Arrows indicate motor neurons (top panel). Levels of nitrotyrosine were quantitated, mean±SEM (n=15 sections from 3 mice per each condition (bottom panel). p<0.05 using ANOVA and Student-Newman-Keuls test.
E: Same as D except measurement of the fluorescence intensity of oxidized MT red CM-H2XRos. p<0.05 using ANOVA and Student-Newman-Keuls test.
G93A transgenic mice received oral administration of 2-hydroxy-TTBA (30 mg/kg/d) in the diet from 8 weeks of age. The oral administration of 2-Hydroxy-TTBA blocked nitrotyrosine, and mitochondrial free radical increased in the lumbar spinal motor neurons at 10 weeks of age compared to the wild type (FIGS. 5D & 5E). […] Thus, cell necrosis and Fas-mediated apoptosis induced in G93A mice can be prevented by oral administration of 2-hydroxy-TTBA and Li^+.

[4] = 25 mg/kg/day for 5 days in 11.5 month-old APP/PS1 mouse

SMILES	IC50 ([1]; NADH/PMS system)	IC50 ([1]; X/XO system)	mRNA expression of TNF-a and IL-16, cytokines inducing inflammation (G93A mice)	IC50 (beta-amyloid (Aβ42))	IC50 ([2]; 24 hours, LDH, read-out: IC50, nerve cell death caused by MPP+)	nerve cell death caused by MPP+, in words ([2]; 0.03-3 uM)	increase of TNF-a caused by LPS (TNF-a)	decrease of IL-6 released into media (IL-6; 100 uM, 1 ug/ml LPS, 24 hours)	IL-6 decrease, in words (IL-6; 1~100 uM)	LD50 [3]	escape latency (latency to find the platform) (Tg2576 transgenic mice)	reduction in SDS-insoluble Aβ40/Aβ42 levels in plasma (APP/PS1 mouse; 25 mg/kg/d for 5 days in 11.5 months)	reduction in SDS-insoluble Aβ40 levels in plasma (APP/PS1 mouse; [4])	reduction in SDS-insoluble Aβ42 levels in plasma (APP/PS1 mouse; [4])	nitrotyrosine and mitochondrial free radical increased in the lumbar spinal motor neurons (G93A transgenic mice)
O=C(O)c1cc(NCCc2ccc(C(F)(F)F)cc2)ccc1O [chemical 01, 2-Hydroxy-5-[2-(4-trifluoromethyl-phenyl)-ethylamino]-benzoic acid]	26.1 µM	> 100 µM	effectively reduced	19.6 µM	0.057 µM	dose-dependent manner	dose-dependent manner	~70%	dose-dependent manner	> 3000 mg/kg	shorter	40%	38%	44%	–
O=C(O)c1cc(NCc2c(F)c(F)c(C(F)(F)F)c(F)c2F)ccc1O [2-Hydroxy-TTBA, 2-hydroxy-5-(2,3,5,6-tetrafluoro-4-trifluoromethyl-benzylamino)-benzoic acid]	–	–	–	–	–	–	–	–	–	–	–	–	–	–	blocked
